We go through one compound from PMC3834762 (British Journal of Pharmacology, 2013).

Positions count from the first letter of the chain named.

Holding throughout (assay type): cell-based
The target in one test is T1, 5‐HT3AT6'S receptors (Homo sapiens, UniProt P46098, T279S).
T1 sequence (P46098 24-478 T279S): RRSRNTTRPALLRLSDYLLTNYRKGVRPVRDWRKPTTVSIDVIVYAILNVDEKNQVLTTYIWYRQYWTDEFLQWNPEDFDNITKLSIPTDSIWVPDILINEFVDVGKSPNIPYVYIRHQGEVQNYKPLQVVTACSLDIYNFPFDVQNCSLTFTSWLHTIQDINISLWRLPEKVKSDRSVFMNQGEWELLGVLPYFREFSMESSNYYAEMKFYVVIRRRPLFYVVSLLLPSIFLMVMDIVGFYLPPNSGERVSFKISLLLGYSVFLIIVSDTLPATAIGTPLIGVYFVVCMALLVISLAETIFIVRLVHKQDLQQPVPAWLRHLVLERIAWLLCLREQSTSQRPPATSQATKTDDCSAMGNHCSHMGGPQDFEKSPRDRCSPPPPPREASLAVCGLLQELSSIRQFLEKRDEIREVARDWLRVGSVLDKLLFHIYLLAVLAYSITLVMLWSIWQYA
As to the kind of experiment: two‐electrode voltage clamp, 5‐HT3AT6'S mutant receptors in Xenopus oocytes. Conditions: maximal current amplitude for the test ligand compared to 5‐HT.

The next test addresses T2, 5‐HT3AB receptors (Homo sapiens, UniProt O95264+P46098).
T2 sequence (P46098 24-478): T1 sequence (P46098 24-478 T279S) with S256T
T2 sequence (O95264 22-441): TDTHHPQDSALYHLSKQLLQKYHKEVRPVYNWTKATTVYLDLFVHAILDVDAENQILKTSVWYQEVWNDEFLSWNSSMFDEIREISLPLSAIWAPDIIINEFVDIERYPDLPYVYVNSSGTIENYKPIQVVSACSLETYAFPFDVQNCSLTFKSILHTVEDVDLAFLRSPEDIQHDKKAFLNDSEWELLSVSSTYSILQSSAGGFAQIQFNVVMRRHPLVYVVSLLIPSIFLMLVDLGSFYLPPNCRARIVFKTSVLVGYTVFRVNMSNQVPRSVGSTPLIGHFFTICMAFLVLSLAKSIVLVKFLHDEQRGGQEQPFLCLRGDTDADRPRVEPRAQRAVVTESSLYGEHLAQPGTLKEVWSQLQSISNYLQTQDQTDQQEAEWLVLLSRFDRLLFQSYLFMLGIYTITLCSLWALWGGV
As to the kind of experiment: two‐electrode voltage clamp, wild type 5‐HT3AB receptors in Xenopus oocytes.

In a further test the target is T3, 5‐HT3A receptors (Homo sapiens, UniProt P46098).
T3 sequence (P46098 24-478): T1 sequence (P46098 24-478 T279S) with S256T
As to the kind of experiment: two‐electrode voltage clamp, wild type 5‐HT3A receptors in Xenopus oocytes.

The next test deals with T4, 5‐HT3AT6'SB receptors (Homo sapiens, UniProt O95264+P46098, T279S).
T4 sequence (P46098 24-478 T279S): T1 sequence (P46098 24-478 T279S)
T4 sequence (O95264 22-441): T2 sequence (O95264 22-441)
As to the kind of experiment: two‐electrode voltage clamp, 5‐HT3AT6'SB mutant receptors in Xenopus oocytes. The following applies: maximal current amplitude for the test ligand compared to 5‐HT.

`c1ccc2nc(N3CCNCC3)ccc2c1` [Quipazine]: the figures for the Rmax on 5‐HT3AT6'S receptors and on 5‐HT3AT6'SB receptors were 0.9 and 1.2, respectively. Moreover, the agonist response result on 5‐HT3AB receptors and on 5‐HT3A receptors (5‐HT3A) was “too small to accurately determine functional parameters” each time. For the same compound, the “long‐lived inhibition of subsequent agonist responses” value on 5‐HT3A receptors (wild type 5‐HT3A and 5‐HT3AB receptors) is listed as above 20 min.
